Assay: xn = mol fraction of the nth substance listed
Details: Liquid, vibrating tube

C1CCOC1 [tetrahydrofuran] + O
mass density [kg/m3]
Details	78.5 kPa	100.7 kPa
293.24 K, x2 = 0.3407	907.81	907.93
293.24 K, x2 = 0.988	995.8	995.84
293.25 K, x2 = 0.9826	994.97	994.99
293.25 K, x2 = 0.9921	996.53	996.6
293.26 K, x2 = 0.0208	888.12	888.29
293.26 K, x2 = 0.0404	889.02	889.18
293.26 K, x2 = 0.0872	892.05	892.21
293.26 K, x2 = 0.9418	990.31	990.26
293.26 K, x2 = 0.9519	991.46	991.41
293.26 K, x2 = 0.9573	992.11	992.05
293.26 K, x2 = 0.9709	993.71	993.65
293.26 K, x2 = 0.9723	993.83	993.77
293.27 K, x2 = 0.0269	888.46	888.63
293.27 K, x2 = 0.0429	889.18	889.35
293.27 K, x2 = 0.0593	890.14	890.31
293.27 K, x2 = 0.6092	934.46	934.53
293.28 K, x2 = 0.8857	981.21	981.18
298.21 K, x2 = 0.3407	902.44	902.65
298.22 K, x2 = 0.0872	886.71	886.95
298.22 K, x2 = 0.988	994.42	994.44
298.22 K, x2 = 0.9921	995.23	995.24
298.23 K, x2 = 0.0269	883.01	883.22
298.23 K, x2 = 0.9418	987.77	987.8
298.23 K, x2 = 0.9723	992.08	992.11
298.23 K, x2 = 0.9826	993.47	993.49
298.24 K, x2 = 0.0208	882.73	882.93
298.24 K, x2 = 0.0593	884.65	884.9
298.24 K, x2 = 0.9573	989.99	990.02
298.24 K, x2 = 0.9709	991.93	991.95
298.25 K, x2 = 0.0429	883.9	883.99
298.25 K, x2 = 0.6092	929.43	929.58
298.25 K, x2 = 0.9519	989.15	989.18
298.26 K, x2 = 0.8857	977.6	977.65
298.29 K, x2 = 0.0404	883.74	883.83
303.07 K, x2 = 0.3407	897.21	897.4
303.09 K, x2 = 0.9418	985.17	985.19
303.1 K, x2 = 0.0269	877.63	877.86
303.1 K, x2 = 0.0872	881.49	881.71
303.1 K, x2 = 0.9519	986.82	986.81
303.1 K, x2 = 0.988	993	992.98
303.1 K, x2 = 0.9921	993.8	993.78
303.11 K, x2 = 0.0404	878.23	878.45
303.11 K, x2 = 0.0593	879.35	879.58
303.11 K, x2 = 0.9573	987.79	987.78
303.11 K, x2 = 0.9723	990.22	990.21
303.11 K, x2 = 0.9826	991.87	991.85
303.12 K, x2 = 0.0208	877.38	877.61
303.12 K, x2 = 0.6092	924.49	924.62
303.12 K, x2 = 0.9709	990.08	990.06
303.13 K, x2 = 0.0429	878.4	878.63
303.13 K, x2 = 0.8857	974.05	974.07
308.19 K, x2 = 0.3407	891.62	891.86
308.22 K, x2 = 0.0872	875.87	876.14
308.22 K, x2 = 0.9418	982.23	982.27
308.22 K, x2 = 0.9519	984.2	984.24
308.22 K, x2 = 0.9921	991.99	992.01
308.23 K, x2 = 0.0269	871.92	872.19
308.23 K, x2 = 0.0404	872.54	872.75
308.23 K, x2 = 0.0593	873.61	873.88
308.23 K, x2 = 0.988	991.08	991.1
308.24 K, x2 = 0.0208	871.65	871.93
308.24 K, x2 = 0.9723	988.08	988.11
308.24 K, x2 = 0.9826	989.93	989.95
308.25 K, x2 = 0.6092	919.21	919.38
308.25 K, x2 = 0.8857	970.11	970.18
308.25 K, x2 = 0.9573	985.24	985.28
308.25 K, x2 = 0.9709	987.99	987.82
308.26 K, x2 = 0.0429	872.71	872.89
313.26 K, x2 = 0.3407	886.03	886.33
313.28 K, x2 = 0.0269	866.21	866.56
313.28 K, x2 = 0.0872	869.29	869.63
313.28 K, x2 = 0.9418	979.18	979.28
313.29 K, x2 = 0.0593	867.9	868.25
313.29 K, x2 = 0.9519	981.33	981.43
313.29 K, x2 = 0.9921	990.02	990.1
313.3 K, x2 = 0.0404	866.86	867.21
313.3 K, x2 = 0.988	989.08	989.16
313.31 K, x2 = 0.9826	987.78	987.87
313.32 K, x2 = 0.6092	913.96	914.2
313.32 K, x2 = 0.9723	985.71	985.8
313.33 K, x2 = 0.9709	985.46	985.55
313.34 K, x2 = 0.0208	866.07	866.42
313.34 K, x2 = 0.8857	966.2	966.33
313.34 K, x2 = 0.9573	982.55	982.65
313.35 K, x2 = 0.0429	867.1	867.44
